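Five compound concentrations were applied to cells in 96-well plates for 48 hours; endpoints were derived by simple linear interpolation of the resulting dose-response curve. TGI marks complete inhibition of growth.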
How the values were obtained:
Assay in all cases: NCI tumour cell line growth inhibition, 48 h
SF-268 CNS = test system: SF-268 CNS
HT29 colon = test system: HT29 colon
NCI-H522 lung = test system: NCI-H522 lung
K-562 leukemia = test system: K-562 leukemia
MOLT-4 leukemia = test system: MOLT-4 leukemia
IGROV1 ovarian = test system: IGROV1 ovarian
SR leukemia = test system: SR leukemia
SK-OV-3 ovarian = test system: SK-OV-3 ovarian
SN12C renal = test system: SN12C renal
SK-MEL-28 melanoma = test system: SK-MEL-28 melanoma

Row | Structure (SMILES) | TGI (SF-268 CNS) [µM] | TGI (HT29 colon) [µM] | TGI (NCI-H522 lung) [µM] | TGI (K-562 leukemia) [µM] | TGI (MOLT-4 leukemia) [µM] | TGI (IGROV1 ovarian) [µM] | TGI (SR leukemia) [µM] | TGI (SK-OV-3 ovarian) [µM] | TGI (SN12C renal) [µM] | TGI (SK-MEL-28 melanoma) [µM]
1 | Cc1nc(Cc2n[nH]c(C)n2)n[nH]1 | > 100 | > 100 | > 100 | > 100 | > 100 | > 100 | > 100 | > 100 | > 100 | –
2 | CN(/N=C\c1ccc2ccccc2c1)C1=NCCCN1 | 60.2 | 31.1 | 30.3 | 34.2 | 8.93 | 23.3 | > 100 | 98.3 | – | 29.8
3 | COc1ccc(N=Nc2c(N)nn3c(SC)c(C#N)c(N)nc23)cc1 | 11.4 | 25.5 | 36.8 | 4.65 | 7.53 | 4.19 | 4.59 | 38.8 | 19.1 | 18.8
4 | O=C(O)/C=C/c1ccncc1 | > 100 | > 100 | > 100 | > 100 | > 100 | > 100 | > 100 | > 100 | > 100 | > 100
5 | CCOC(=O)C1CCC(=O)N1C(=O)c1ccc(Cl)cc1 (stereo not given) | > 100 | > 100 | > 100 | > 100 | > 100 | > 100 | > 100 | – | > 100 | > 100
6 | C=CCNC1=C2C[C@@H](C)C[C@@H](OC)[C@H](OC(=O)CCN(C)C)[C@H](C)/C=C(\C)[C@@H](OC(N)=O)[C@H](OC)/C=C\C=C(/C)C(=O)NC(=CC1=O)C2=O | 29.4 | 12.8 | 17.3 | > 43.7 | > 40.6 | 14.5 | > 32.5 | 2.73 | 17.9 | 21.9
7 | CCOC(=O)c1c(-c2ccccc2)c(C)cn1C | > 10 | > 10 | > 10 | > 10 | > 10 | > 10 | > 10 | > 10 | > 10 | –
8 | O=C(NCc1ccccc1Cl)c1c(O)c2ccccc2[nH]c1=O | > 100 | > 100 | > 100 | > 100 | > 100 | 67.2 | > 100 | – | > 100 | > 100
9 | CC(C)[C@@H]1NC(=O)[C@@H]2N=C(O[C@H]2C)[C@H](C(C)C)NC(=O)C2N=C1O[C@H]2C | > 100 | > 100 | > 100 | > 100 | > 100 | > 100 | > 100 | – | > 100 | > 100
10 | COc1cccc(N=NN2CCCC2)c1 | > 100 | – | > 100 | > 100 | > 100 | > 100 | > 100 | > 100 | > 100 | –
11 | CC(C)=CCC/C(C)=C/C=C/C(C)=C/C1C[C@@]2(C(O)O1)[C@H](CCCO)/C(=C(/C)C=O)CC[C@]2(C)O (stereo not given in full) | 33.3 | 33.3 | 36.7 | 28.4 | 30.8 | 40.6 | 37.2 | – | 30.8 | 32.3
12 | CN(C)C(=O)Oc1ccc(C(=S)Nc2ccccc2)cc1 | > 100 | > 100 | > 100 | > 100 | 64 | > 100 | > 100 | > 100 | – | > 100
13 | CCCCCCCCCCCCC1N=C(N)N2CCCC2=C1C(=O)OC (stereo not given) | 14.8 | 3.06 | 3.26 | 2.91 | 4.22 | 7.94 | > 100 | 23.8 | – | 3.1
14 | O=c1c2cc(I)ccc2nc(-c2cccs2)n1O | > 100 | > 100 | > 100 | > 100 | > 100 | > 100 | > 100 | – | > 100 | > 100
15 | CC(C)(CN1CCCCC1)C(=O)CC(SCCS(=O)(=O)O)c1ccc(Cl)cc1 (stereo not given) | – | 12.6 | 6.29 | 9.91 | 6.63 | 20.4 | 4.82 | 28.8 | 15.8 | –
16 | O=C1/C(=C/c2ccc(Cl)cc2)Oc2ccccc21 | > 100 | > 100 | 34.5 | > 100 | > 100 | – | > 100 | > 100 | > 100 | > 100
17 | COc1ccc(C23OCC(Cc4cc(OC)c(OC)cc42)C3CO)cc1OC (stereo not given) | – | – | > 100 | > 100 | > 100 | – | > 100 | > 100 | – | > 100
18 | C=CCOC(=O)N1c2ccc(O)cc2[C@@]23O[C@@]24[C@@H]1C#C/C=C\C#C[C@]3(O)C(=O)C[C@@H]4C | > 100 | > 100 | > 100 | > 100 | 49.4 | > 100 | 42.3 | – | > 100 | > 100
